Laboratory results reported in PubChem BioAssay AID1996.
≈ marks a conversion by molar mass, not a printed value.

Details: buffer; pH 7.4; 200.0 µM

Compound | solubility kinetic [µg/mL]
COc1ccc(S(=O)(=O)NCC(=O)NC2CC2)cc1OC | > 47.2
Cc1cccc(OCCN2C(=O)c3ccccc3C2=O)c1 | 4.6 (≈ 16.4 µM)
Cc1ccc(NC(=O)Cn2c([N+](=O)[O-])cnc2C)cc1 | > 41.1
O=C(OCC(=O)N1CCCC1)c1cc(Cl)ccc1[N+](=O)[O-] | > 46.9
Cc1ccccc1CNC(=O)CN1C(=O)c2ccccc2S1(=O)=O | 11.2 (≈ 32.5 µM)
CN(C)S(=O)(=O)c1ccc(NC(=O)CN2CCCCCC2)cc1 | 50.9 (≈ 150 µM)
Cc1ccc(C(=O)OCC(=O)NCCc2ccccc2)cc1C | 11.3 (≈ 36.3 µM)
Cc1ccc(S(=O)(=O)N2CCOCC2)cc1NC(=O)COC(=O)C1(C)CC1(Cl)Cl (stereo not drawn) | > 69.8
CC1(C(=O)Nc2ccccc2)Cc2ccccc2C(=O)O1 (stereo not drawn) | > 42.2
COC(=O)CSc1nc2ccc(N)cc2s1 | > 38.1
CCN1CCN(S(=O)(=O)c2ccc3c4c(cccc24)C(=O)N3CC)CC1 | > 56
O=C(O)C(=O)O.c1ccc(CNC23CC4CC(CC(C4)C2)C3)nc1 | 45.8
CN1C/C(=C/c2ccncc2)C(=O)/C(=C/c2ccncc2)C1 | 40.9 (≈ 140 µM)
COc1ccc(OC)c(S(=O)(=O)N2CCN(C)CC2c2ccccc2)c1 (stereo not drawn) | > 56.5
CCC(C(=O)Nc1cc(C)cc(C)n1)c1ccccc1 (stereo not drawn) | 39.3 (≈ 146 µM)
Cc1cc(Sc2nc(N(C)C)nc(N(C)C)n2)nc(Cl)n1 | 1 (≈ 3.07 µM)
CC1CCN(C(=O)COC(=O)CCC(=O)c2ccc(Cl)cc2)CC1 | 49.8 (≈ 142 µM)
O=S(=O)(c1cccc2nonc12)N1CCCCCC1 | 15.7 (≈ 55.8 µM)
COc1ccc(CC(=O)OCC(=O)NC2CCCCC2)cc1 | > 45.8
COc1cc(S(=O)(=O)N2CCn3cccc3C2C)ccc1NC(C)=O (stereo not drawn) | > 54.5

Compound | solubility kinetic [µg/mL]
CN1CCN(S(=O)(=O)c2ccc([N+](=O)[O-])cc2)CC1 | > 42.8
CCN(Cc1cccc(F)c1)C(=O)c1ccc2ccccc2n1 | > 46.3
S=C(Nc1ccccc1Cl)NC1CCCCCC1 | 22 (≈ 77.8 µM)
CC(N)C12CC3CC(CC(C3)C1)C2.Cl (stereo not drawn) | > 32.4
CCc1ccccc1NC(=S)N(CCN(C)C)C(C)c1ccco1 (stereo not drawn) | 50.5 (≈ 146 µM)
Cc1ccc(SCC(=O)NCc2ccccc2)cc1 | > 40.7
NC(=O)c1ccc(NCC2CCCO2)c([N+](=O)[O-])c1 (stereo not drawn) | > 39.8
COc1ccnc2c1c(=O)n(Cc1cccc(Cl)c1)c(=O)n2C | 9.8 (≈ 29.5 µM)
Cc1cccc(-c2nc(C#N)c(N3CCC(C)CC3)o2)c1 | < 0.2
O=[N+]([O-])c1ccc(N2CCN(c3cccc(Cl)c3)CC2)nc1 | 0.4 (≈ 1.25 µM)
Nc1ccccc1C(=O)Nc1cccc2ccccc12 | 24.7 (≈ 94.2 µM)
CC(C(=O)Nc1ccccc1)N(C)Cc1cccs1 (stereo not drawn) | 33.6 (≈ 122 µM)
COc1ccc(C(=O)C[n+]2ccc3ccccc3c2C)cc1.[Br-] | 16.1
O=C(NCC(c1ccco1)N1CCCC1)c1ccc(-n2cccn2)cc1 (stereo not drawn) | > 52.6
O=S(=O)(CCN1CCOCC1)c1ccc(OC(F)(F)F)cc1 | > 50.9
Cl.O=C(CSC1=NCCN1)Nc1cccc([N+](=O)[O-])c1 | > 47.5
Cc1ccc(-c2cn3cccnc3n2)cc1 | > 31.4
CC(C)C[C@H]1C(=O)N2CCCC2[C@]2(O)O[C@](NC(=O)[C@@H]3C=C4c5cccc6[nH]cc(c56)CC4N(C)C3)(C(C)C)C(=O)N12 (stereo partly drawn) | 24.1 (≈ 41.9 µM)
CC(=O)c1c(C)n(-c2cccc(Cl)c2)c2ccc(O)cc12 | < 0.6
CCCCOc1ccc(C2(C)NC(=O)N(C)C2=O)cc1 (stereo not drawn) | > 41.5

Compound | solubility kinetic [µg/mL]
Oc1c(Cl)cc(Cl)cc1C=Nc1ccc(N2CCOCC2)cc1 | 8.1 (≈ 23.1 µM)
CCC(C(=O)OC(C)C(=O)Nc1ccc(Cl)cn1)c1ccccc1 (stereo not drawn) | 16.9 (≈ 48.7 µM)
CCc1nnc(NC(=O)C2CC(=O)N(Cc3ccccc3)C2)s1 (stereo not drawn) | > 49.6
FC(F)(F)c1cccc(CN2CCSCC2)c1 | < 0.6
Cc1ccc(CONS(=O)(=O)c2cc(C)ccc2C)cc1 | 5.2 (≈ 17 µM)
Cc1occc1C(=O)Nc1cccc(Cl)c1Cl | 4.5 (≈ 16.7 µM)
O=C(CNCc1cccc2ccccc12)Nc1ccccc1[N+](=O)[O-] | 5.4 (≈ 16.1 µM)
CCOC(=O)N1CCN(c2ccc(S(=O)(=O)N3CCOCC3)cn2)CC1 | 47 (≈ 122 µM)
CCOC(=O)c1c(N=CN(C)C)c2cc([N+](=O)[O-])cnc2n1C | 35 (≈ 110 µM)
Cc1ccc(S(=O)(=O)N2CCOCC2)cc1NC(=O)COC(=O)/C=C/c1ccco1 | 11.4 (≈ 26.2 µM)
CCOc1ncnc2c1sc1nc(C)cc(C)c12 | < 0.2
Cc1ncc([N+](=O)[O-])n1CCOC(=O)C12CC3CC(CC(C3)C1)C2 | 5.3 (≈ 15.9 µM)
COc1ccc(OCC(O)CN2CCOCC2)cc1 (stereo not drawn) | 40.1 (≈ 150 µM)
CCOC(=O)C1CCCN(C(=O)CSc2nnc3nc(C)cc(C)n23)C1 (stereo not drawn) | > 56.6
Cc1ccc(N2C(=O)c3cccc([N+](=O)[O-])c3C2=O)cc1C | 23.3 (≈ 78.6 µM)
OC1(c2ccc3c(c2)OCO3)CCN(Cc2ccc(F)cc2)CC1 | > 49.4
COc1ccc(NC(=O)CS(=O)(=O)c2ccc(F)cc2)cc1 | 46.9 (≈ 145 µM)
Cc1ccc(S(=O)(=O)N2CCN(C(=O)c3ccco3)CC2)cc1C | 46 (≈ 132 µM)
